Among the data in US6949648B2, “Condensed pyrazole derivatives, process for producing the same and use thereof” (Takeda Pharmaceutical Company Limited, priority 2000, dated 2005) are melting point values, retold here.

For `Cc1cc(C)nc(-n2nc(C)c3c(Cl)c4ccccc4nc32)n1` [Example 2-147, 4-Chloro-1-(4,6-dimethyl-2-pyrimidinyl)-3-methyl-1H-pyrazolo[3,4-b]quinoline], the melting point was in the range of 191 to 192 °C.

Compound `Cc1nn(-c2ccccn2)c2nc3ccsc3c(Cl)c12` [Example 2-155, 4-Chloro-3-methyl-1-(2-pyridinyl)-1H-pyrazolo[3,4-b]thieno[2,3-e]pyridine] had a melting point of 230 to 231 °C.

`Cc1nn(-c2ccccn2)c2nc3ccccc3c(N3CCOCC3)c12` [Example 2-11, 3-Methyl-4-(4-morpholinyl)-1-(2-pyridinyl)-1H-pyrazolo[3,4-b]quinoline] gave a melting point of 203 to 205 °C.

The compound `Cc1nn(-c2ccccn2)c2nc3ccccc3c(Cl)c12` [Example 1-34, 4-Chloro-3-methyl-1-(2-pyridinyl)-1H-pyrazolo[3,4-b]quinoline] gave a melting point of 157 to 159 °C.

As for `Cc1nn(-c2ccccn2)c2[nH]c3c(c(=O)c12)CCCCC3` [Example 2-195, 3-Methyl-1-(2-pyridinyl)-5,6,7,8,9,10-hexahydrocyclohepta[b]pyrazolo[4,3-e]pyridin-4(1H)-one], the melting point fell in the range of 184 to 185 °C.

The compound `Cc1nn(-c2ccccn2)c2[nH]c3ccc(Br)cc3c(=O)c12` [Example 2-87, 6-Bromo-3-methyl-1-(2-pyridinyl)-1,9-dihydro-4H-pyrazolo[3,4-b]quinolin-4-one] yielded a melting point of 240 to 242 °C.

Compound `CCOc1c2ccccc2nc2c1c(C)nn2-c1ccccn1` [Example 2-16, 4-Ethoxy-3-methyl-1-(2-pyridinyl)-1H-pyrazolo[3,4-b]quinoline] registered a melting point of 121 to 123 °C.

The compound `Cc1nn(-c2nccs2)c2[nH]c3ccccc3c(=O)c12` [Example 2-151, 3-Methyl-1-(1,3-thiazol-2-yl)-1,9-dihydro-4H-pyrazolo[3,4-b]quinolin-4-one] returned a melting point of 226 to 227 °C.

In turn, `O=c1c2cnn(-c3ccccn3)c2[nH]c2cccc(F)c12` [Example 2-163, 5-Fluoro-1-(2-pyridinyl)-1,9-dihydro-4H-pyrazolo[3,4-b]quinolin-4-one] showed a melting point of 278 to 281 °C.

`Cc1cccnc1-n1nc(C)c2c(Cl)c3ccccc3nc21` [Example 2-118, 4-Chloro-3-methyl-1-(3-methyl-2-pyridinyl)-1H-pyrazolo[3,4-b]quinoline]: the melting point was 160 to 161 °C.

`O=C(O)Cc1nn(-c2ccccn2)c2[nH]c3ccccc3c(=O)c12` [Example 2-177, 2-[4-Oxo-1-(2-pyridinyl)-4,9-dihydro-1H-pyrazolo[3,4-b]quinolin-3-yl]acetic acid]: the melting point lay within 229 to 231 °C.

Take `CCCN(C)c1c2ccccc2nc2c1c(C)nn2-c1ccccn1` [Example 2-9, N-Methyl-N-[3-methyl-1-(2-pyridinyl)-1H-pyrazolo[3,4-b]quinolin-4-yl]-N-propylamine]: the melting point fell in the range of 110 to 112 °C.

`Cc1nn(-c2ccc(Cl)cn2)c2nc3ccccc3c(Cl)c12` [Example 2-113, 4-Chloro-1-(5-chloro-2-pyridinyl)-3-methyl-1H-pyrazolo[3,4-b]quinoline] yielded a melting point of 216 to 217 °C.

Regarding `CCc1c2ccccc2nc2c1c(C)nn2-c1ccccn1` [Example 2-102, 4-Ethyl-3-methyl-1-(2-pyridinyl)-1H-pyrazolo[3,4-b]quinoline], the melting point was in the range of 112 to 114 °C.

On to `Cc1nn(-c2ccccn2)c2nc3ccccc3c(NC3CC3)c12.Cl`, for which the melting point lay in the range of 208 to 211 °C.

As to `CCCCN(C)c1c2ccccc2nc2c1c(C)nn2-c1ccccn1` [Example 2-10, N-Butyl-N-methyl-[3-methyl-1-(2-pyridinyl)-1H-pyrazolo[3,4-b]quinolin-4-yl]amine], the melting point lay in the range of 85 to 87 °C.

For `Cc1nn(-c2ccccn2)c2nc3ccc(F)c(F)c3c(Cl)c12` [Example 2-88, 4-Chloro-5,6-difluoro-3-methyl-1-(2-pyridinyl)-1H-pyrazolo[3,4-b]quinoline], the melting point was 240 to 242 °C.

In the case of `Cc1cccnc1-n1nc(C)c2c(N)c3cccc(C)c3nc21` [Example 2-134, 3,8-Dimethyl-1-(3-methyl-2-pyridinyl)-1H-pyrazolo[3,4-b]quinolin-4-ylamine], the melting point fell in the range of 199 to 202 °C.

In turn, `Cc1nn(-c2cccnc2)c2[nH]c3ccccc3c(=O)c12` [Example 2-138, 3-Methyl-1-(3-pyridinyl)-1,9-dihydro-4H-pyrazolo[3,4-b]quinolin-4-one] had a melting point of 282 to 283 °C.

`O=c1c2ccccc2[nH]c2c1c(-c1ccccc1)nn2-c1ccccn1` [Example 2-182, 3-Phenyl-1-(2-pyridinyl)-1,9-dihydro-4H-pyrazolo[3,4-b]quinolin-4-one] displayed a melting point of 237 to 240 °C.

Take `CCOC(=O)c1nn(-c2ccccn2)c2[nH]c3ccccc3c(=O)c12` [Example 2-180, Ethyl 4-oxo-1-(2-pyridinyl)-4,9-dihydro-1H-pyrazolo[3,4-b]quinoline-3-carboxylate]: the melting point was in the range of 183 to 186 °C.

Take `CCCCCc1c2ccccc2nc2c1c(C)nn2-c1ccccn1` [Example 2-106, 3-Methyl-4-pentyl-1-(2-pyridinyl)-1H-pyrazolo[3,4-b]quinoline]: the melting point lay in the range of 121 to 122 °C.

Compound `CCOc1cccc(-n2nc(C)c3c(Cl)c4c(C)cccc4nc32)n1` [Example 2-121, 4-Chloro-3,5-dimethyl-1-(6-ethoxy-2-pyridinyl)-1H-pyrazolo[3,4-b]quinoline] displayed a melting point of 146 to 148 °C.

The compound `Cc1nn(-c2ccccn2)c2nc3ccc(Br)cc3c(Cl)c12` [Example 2-86, 6-Bromo-4-chloro-3-methyl-1-(2-pyridinyl)-1H-pyrazolo[3,4-b]quinoline] registered a melting point of 234 to 235 °C.

Consider `Cc1nn(-c2ccccn2)c2nc3ccccc3c(OCC(C)C)c12` [Example 2-20, 4-Isobutoxy-3-methyl-1-(2-pyridinyl)-1H-pyrazolo[3,4-b]quinoline], for which the melting point is 117 to 120 °C.

Compound `CCCCc1c2ccccc2nc2c1c(C)nn2-c1ccccn1` [Example 2-104, 4-Butyl-3-methyl-1-(2-pyridinyl)-1H-pyrazolo[3,4-b]quinoline] yielded a melting point of 102 to 103 °C.

The compound `COC(=O)c1ccc2c(=O)c3c(C)nn(-c4ccccn4)c3[nH]c2c1` [Example 2-67, Methyl 3-methyl-4-oxo-1-(2-pyridinyl)-4,9-dihydro-1H-pyrazolo[3,4-b]quinoline-7-carboxylate] showed a melting point of 251 to 252 °C.

The compound `COc1cccc2c(N)c3c(C)nn(-c4ccccn4)c3nc12.Cl` came in with a melting point of 248 to 251 °C.

`Cc1nn(-c2ccccn2)c2nc3ccccc3c(C(N)=O)c12` [Example 2-108, 3-Methyl-1-(2-pyridinyl)-1H-pyrazolo[3,4-b]quinoline-4-carboxamide] displayed a melting point of more than 300 °C.

For the compound `Cc1ccc2nc3c(c(C)nn3-c3ccccn3)c(Cl)c2c1` [Example 2-32, 4-Chloro-3,6-dimethyl-1-(2-pyridinyl)-1H-pyrazolo[3,4-b]quinoline], the melting point lay in the range of 158 to 160 °C.

For `Cc1nn(-c2ccccn2)c2nc3cccc(F)c3c(Cl)c12` [Example 2-78, 4-Chloro-5-fluoro-3-methyl-1-(2-pyridinyl)-1H-pyrazolo[3,4-b]quinoline], the melting point lay in the range of 160 to 161 °C.

`Cc1nn(Cc2cccnc2)c2[nH]c3ccccc3c(=O)c12` [Example 2-191, 3-Methyl-1-(3-pyridinylmethyl)-1,9-dihydro-4H-pyrazolo[3,4-b]quinolin-4-one] had a melting point of 285 to 288 °C.

Compound `Cc1cccc(-n2nc(C)c3c(=O)c4cc(F)c(F)cc4[nH]c32)n1` [Example 2-209, 6,7-Difluoro-3-methyl-1-(6-methyl-2-pyridinyl)-1,9-dihydro-4H-pyrazolo[3,4-b]quinolin-4-one] yielded a melting point of 301 to 302 °C.

For `Cc1nn(-c2ccccn2)c2nc3ccc(F)cc3c(Cl)c12` [Example 2-80, 4-Chloro-6-fluoro-3-methyl-1-(2-pyridinyl)-1H-pyrazolo[3,4-b]quinoline], the melting point was 185 to 187 °C.

`COC(=O)Cc1nn(-c2ccccn2)c2nc3ccccc3c(Cl)c12` [Example 2-175, Methyl 2-[4-chloro-1-(2-pyridinyl)-1H-pyrazolo[3,4-b]quinolin-3-yl]acetate] showed a melting point of 152 to 153 °C.

With `Cc1nn(Cc2ccccn2)c2[nH]c3ccccc3c(=O)c12` [Example 2-189, 3-Methyl-1-(2-pyridinylmethyl)-1,9-dihydro-4H-pyrazolo[3,4-b]quinolin-4-one], the melting point was 269 to 272 °C.

`Cc1nn(-c2ccccn2)c2[nH]c3ccc(N(C)C)cc3c(=O)c12` [Example 2-56, 6-Dimethylamino-3-methyl-1-(2-pyridinyl)-1,9-dihydro-4H-pyrazolo[3,4-b]quinolin-4-one] returned a melting point of 171 to 173 °C.

`Cc1nn(-c2ccccn2)c2[nH]c3cccc(Cl)c3c(=O)c12` [Example 2-69, 5-Chloro-3-methyl-1-(2-pyridinyl)-1,9-dihydro-4H-pyrazolo[3,4-b]quinolin-4-one] returned a melting point of 212 to 213 °C.

For the compound `CCOC(=O)c1nn(-c2ccccn2)c2nc3ccccc3c(Cl)c12` [Example 2-179, Ethyl 4-chloro-1-(2-pyridinyl)-1H-pyrazolo[3,4-b]quinoline-3-carboxylate], the melting point fell in the range of 164 to 166 °C.

Regarding `Clc1c2ccccc2nc2c1cnn2-c1ccccn1` [Example 2-157, 4-Chloro-1-(2-pyridinyl)-1H-pyrazolo[3,4-b]quinoline], the melting point was in the range of 153 to 156 °C.

Compound `Cc1nn(-c2ccccn2)c2[nH]c3cc(Cl)ccc3c(=O)c12` [Example 2-74, 7-Chloro-3-methyl-1-(2-pyridinyl)-1,9-dihydro-4H-pyrazolo[3,4-b]quinolin-4-one] returned a melting point of 274 to 275 °C.

`Cc1cccc2c(=O)c3c(C)nn(-c4ccc5ccccc5n4)c3[nH]c12` [Example 2-154, 3,8-Dimethyl-1-(2-quinolinyl)-1,9-dihydro-4H-pyrazolo[3,4-b]quinolin-4-one] returned a melting point of 255 to 257 °C.

The compound `Cc1nn(-c2ncccn2)c2nc3ccccc3c(Cl)c12` [Example 2-144, 4-Chloro-3-methyl-1-(2-pyrimidinyl)-1H-pyrazolo[3,4-b]quinoline] showed a melting point of 257 to 260 °C.

In general, melting point refers to the temperature of the solid-liquid transition.
